# Assay results: US20040082551A1, “Novel pyrazoles and their use as p38 kinase inhibitors” (priority 2002, published 2004)
# Structures can show the parent of a compound that is named as a salt.
# Target: T1, human p38 kinase alpha (Homo sapiens, UniProt Q16539)
# T1 construct: The coding region of the human p38α cDNA was obtained by PCR-amplification from RNA isolated from the human monocyte cell line THP.1; made in house; host or cells: E. coli DH10B
# Assay: In vitro p38 kinase inhibition analysis (PHAS-I 32P-ATP or EGFRP 33P-ATP format)
# Format: biochemical
# Conditions: Table 1; compounds of Examples 1-28; one of two in vitro assay methods; 4-methylbenzenesulfonate; read-out: p38α Kinase Inhibition (IC50 in μM)
# Description: The ability of compounds to inhibit human p38 kinase alpha was evaluated using one of two in vitro assay methods. In the first method, activated human p38 kinase alpha phosphorylates a biotinylated substrate, PHAS-I (phosphorylated heat and acid stable protein-insulin inducible), in the presence of gamma ^32P-ATP (^32P-ATP). PHAS-I was biotinylated before the assay, and provided a means of capturing the substrate which was phosphorylated during the assay. p38 Kinase was activated by MKK6. Compounds were tested in 10 fold serial dilutions over the range of 100 μM to 0.001 μM using 1% DMSO. Each concentration of inhibitor was tested in triplicate.
# All reactions were carried out in 96 well polypropylene plates. Each reaction well contained 25 mM HEPES pH 7.5, 10 mM magnesium acetate, and 50 μM unlabeled ATP. […] Activated human p38 kinase alpha was used at 1 μg per 50 μl reaction volume, representing a final concentration of 0.3 μM. Gamma ^32P-ATP was used to follow the phosphorylation of PHAS-I. ^32P-ATP has a specific activity of 3000 Ci/mmol, and was used at 1.2 μCi per 50 μl reaction volume. The reaction proceeded either for one hr or overnight at 30° C.
# Following incubation, 20 μl of reaction mixture was transferred to a high capacity streptavidin coated filter plate (SAM-streptavidin-matrix, Promega) prewetted with phosphate buffered saline. The transferred reaction mix was allowed to contact the streptavidin membrane of the Promega plate for 1-2 min. […] Filter plates were air dried and 20 μl of scintillant was added. The plates were sealed and counted.
# A second assay format was alternatively employed. This assay is based on p38 kinase alpha being induced phosphorylation of EGFRP (epidermal growth factor receptor peptide, a 21 mer) in the presence of ^33P-ATP. Compounds were tested in 10 fold serial dilutions over the range of 100 μM to 0.001 μM in 10% DMSO. Each concentration of inhibitor was tested in triplicate. Compounds were evaluated in 50 μl reaction volumes in the presence of 25 mM HEPES pH 7.5, 10 mM magnesium acetate, 4% glycerol, 0.4% bovine serum albumin, 0.4 mM DTT, 50 μM unlabeled ATP, 25 μg EGFRP (200 μM), and 0.05 uCi gamma ^33P-ATP. Reactions were initiated by addition of 0.09 μg of activated, purified human GST-p38 kinase alpha. Activation was carried out using GST-MKK6 (5:1,p38:MKK6) for one hr at 30° C. in the presence of 50 μM ATP. Following incubation for 60 min at room temperature, the reaction was stopped by addition of 150 μl of AG 1×8 resin in 900 mM sodium formate buffer, pH 3.0 (1 volume resin to 2 volumes buffer). The mixture was mixed three times with pipetting. Afterward, the resin was allowed to settle. A total of 50 μl of clarified solution head volume was transferred from the reaction wells to Microlite-2 plates. 150 μl of Microscint 40 was then added to each well of the Microlite plate, and the plate was sealed, mixed, and counted.
# T1 sequence (Q16539 whole entry): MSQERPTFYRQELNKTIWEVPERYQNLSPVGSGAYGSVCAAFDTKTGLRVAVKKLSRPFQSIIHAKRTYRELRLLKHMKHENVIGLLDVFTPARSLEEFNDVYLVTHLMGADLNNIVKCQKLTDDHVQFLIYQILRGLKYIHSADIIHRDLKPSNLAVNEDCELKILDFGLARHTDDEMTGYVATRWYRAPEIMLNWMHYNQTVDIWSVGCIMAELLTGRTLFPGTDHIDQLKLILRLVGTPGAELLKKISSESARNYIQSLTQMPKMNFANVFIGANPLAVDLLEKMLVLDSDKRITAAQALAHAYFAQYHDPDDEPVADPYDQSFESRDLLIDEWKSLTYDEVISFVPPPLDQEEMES
row,Compound,IC50
1,"C[C@@H](N[C@H]1CC[C@H](c2[nH]nc(-c3ccc(Cl)cc3)c2-c2ccncn2)CC1)c1ccccc1 [Example 2, 4-[3-(4-chlorophenyl)-4-pyrimidin-4-yl-1H-pyrazol-5-yl]-N-[(1R)-1-phenylethyl]-trans-cyclohexanamine 4-methylbenzenesulfonate]",0.0279 µM

# Same assay, conditions: Table 1; compounds of Examples 1-28; one of two in vitro assay methods; Hydrochloride Hydrate; read-out: p38α Kinase Inhibition (IC50 in μM)
row,Compound,IC50
1,"Clc1ccc(-c2n[nH]c([C@H]3CC[C@H](N4CCCCC4)CC3)c2-c2ccncn2)cc1 [Example 8, 4-[3-(4-chlorophenyl)-5-(4-piperidin-1-ylcyclohexyl)-1H-pyrazol-4-yl]pyrimidine Hydrochloride Hydrate]",0.0582 µM
2,"OC[C@H]1CCCN1[C@H]1CC[C@H](c2[nH]nc(-c3ccc(Cl)cc3)c2-c2ccncn2)CC1 [Example 10, ((2R)-1-{4-[3-(4-chlorophenyl)-4-pyrimidin-4-yl-1H-pyrazol-5yl]cyclohexyl}pyrrolidin-2-yl)methanol Hydrochloride Hydrate]",0.0354 µM
3,"CN(CCO)[C@H]1CC[C@H](c2[nH]nc(-c3ccc(Cl)cc3)c2-c2ccncn2)CC1 [Example 12, 2-[{4-[3-(4-chlorophenyl)-4-pyrimidin-4-yl-1H-pyrazol-5-yl]cyclohexyl)(methyl)amino]ethanol Hydrochloride Hydrate]",0.0379 µM

# Same assay, conditions: Table 1; compounds of Examples 1-28; one of two in vitro assay methods; Phosphate Dihydrate; read-out: p38α Kinase Inhibition (IC50 in μM)
row,Compound,IC50
1,"O=C(COP(=O)(O)O)N1CCC(c2[nH]nc(-c3ccc(Cl)cc3)c2-c2ccncn2)CC1 [Example 23, mono-sodium 2-{4-[3-(4-chlorophenyl)-4-pyrimidin-4-yl-1H-pyrazol-5-yl]piperidin-1-yl}-2-oxoethyl Dihydrogen Phosphate Dihydrate]",0.0681 µM
2,"O=C(COP(=O)(O)O)N1CCC(c2[nH]nc(-c3ccc(Cl)cc3)c2-c2ccncn2)CC1 [Example 24, di-sodium 2-{4-[3-(4-chlorophenyl)-4-pyrimidin-4-yl-1H-pyrazol-5-yl]piperidin-1-yl}-2-oxoethyl Dihydrogen Phosphate Dihydrate]",0.0608 µM

# Same assay, conditions: Table 1; compounds of Examples 1-28; one of two in vitro assay methods; Trifluoroacetate Hydrate; read-out: p38α Kinase Inhibition (IC50 in μM)
row,Compound,IC50
1,"CN(CCO)[C@H]1CC[C@H](c2[nH]nc(-c3ccc(Cl)cc3)c2-c2ccncn2)CC1 [Example 11, 2-[{4-[3-(4-chlorophenyl)-4-pyrimidin-4-yl-1 H-pyrazol-5-yl]cyclohexyl)(methyl)amino]ethanol Trifluoroacetate Hydrate]",0.0271 µM

# Same assay, conditions: Table 1; compounds of Examples 1-28; one of two in vitro assay methods; Trifluoroacetate; read-out: p38α Kinase Inhibition (IC50 in μM)
row,Compound,IC50
1,"Clc1ccc(-c2n[nH]c([C@H]3CC[C@H](N4CCCCC4)CC3)c2-c2ccncn2)cc1 [Example 7, 4-[3-(4-chlorophenyl)-5-(4-piperidin-1-yl-cyclohexyl)-1H-pyrazol-4-yl]pyrimidine Trifluoroacetate]",0.0238 µM
2,"OC[C@H]1CCCN1[C@H]1CC[C@H](c2[nH]nc(-c3ccc(Cl)cc3)c2-c2ccncn2)CC1 [Example 9, ((2R)-1-{4-[3-(4-chlorophenyl)-4-pyrimidin-4-yl-1H-pyrazol-5-yl]cyclohexyl)pyrrolidin-2-yl)methanol Trifluoroacetate]",0.0285 µM

# Same assay, conditions: Table 1; compounds of Examples 1-28; one of two in vitro assay methods; read-out: p38α Kinase Inhibition (IC50 in μM)
row,Compound,IC50
1,"C[C@@H](N[C@H]1CC[C@H](c2[nH]nc(-c3ccc(Cl)cc3)c2-c2ccncn2)CC1)c1ccccc1 [Example 1, 4-[3-(4-chlorophenyl)-4-pyrimidin-4-yl-1H-pyrazol-5-yl]-N-[(1R)-1-phenylethyl]-trans-cyclohexanamine]",0.0314 µM
2,"Clc1ccc(-c2n[nH]c([C@H]3CC[C@H](NC4CCCCC4)CC3)c2-c2ccncn2)cc1 [Example 3, 4-[3-(4-chlorophenyl)-4-pyrimidin-4-yl-1H-pyrazol-5-yl]-N-cyclohexyltrans-cyclohexanamine]",0.0452 µM
3,Clc1ccc(-c2n[nH]c([C@H]3CC[C@H](NC4CCCCC4)CC3)c2-c2ccncn2)cc1 [Example 4],0.0379 µM
4,"C[C@@H](N[C@H]1CC[C@H](c2[nH]nc(-c3ccc(Cl)cc3)c2-c2ccncn2)CC1)c1ccc(F)cc1 [Example 5, 4-[3-(4-chlorophenyl)-4-pyrimidin-4-yl-1H-pyrazol-5-yl]-N-[(1R)-1-(4-fluorophenyl)ethyl]-trans-cyclohexanamine]",0.0232 µM
5,"O[C@H]1CC[C@H](c2[nH]nc(-c3ccc(Cl)cc3)c2-c2ccncn2)CC1 [Example 6, 4-[3-(4-chlorophenyl)-4-pyrimidin-4-yl-1H-pyrazol-5-yl]-trans-cyclohexanol]",0.289 µM
6,"CC(C)N[C@H]1CC[C@H](c2[nH]nc(-c3ccc(F)c(F)c3)c2-c2ccncn2)CC1 [Example 13, 4-[3-(3,4-difluorophenyl)-4-pyrimidin-4-yl-1H-pyrazol-5-yl]-N-isopropylcyclohexanamine]",0.115 µM
7,"CC(C)N[C@H]1CC[C@H](c2[nH]nc(-c3ccc(F)c(C(F)(F)F)c3)c2-c2ccncn2)CC1 [Example 14, 4-{3-[4-fluoro-3-(trifluoromethyl)phenyl]-4-pyrimidin-4-yl-1H-pyrazol-5-yl}-N-isopropylcyclohexanamine]",0.0723 µM
8,"CC(C)(O)[C@H]1CC[C@H](c2[nH]nc(-c3ccc(Cl)cc3)c2-c2ccncn2)CC1 [Example 16, 2-{4-[3-(4-chlorophenyl)-4-pyrimidin-4-yl-1H-pyrazol-5-yl]cyclohexyl)propan-2-ol]",0.0926 µM
9,"OC1CCCC1N1CCC(c2[nH]nc(-c3ccc(Cl)cc3)c2-c2ccncn2)CC1 (stereo not shown) [Example 17, 2-{4-[3-(4-chlorophenyl)-4-pyrimidin-4-yl-1H-pyrazol-5-yl]piperidin-1-yl}cyclopentanol Fumarate]",0.0189 µM
10,"CC(c1ccc(C(C)(C)O)cc1)N1CCC(c2[nH]nc(-c3ccc(Cl)cc3)c2-c2ccncn2)CC1 (stereo not shown) [Example 18, 2-[4-(1-{4-[3-(4-chlorophenyl)-4-pyrimidin-4-yl-1H-pyrazol-5-yl]piperidin-1-yl}ethyl)phenyl]propan-2-ol]",0.0106 µM
11,"Fc1ccc(CN2CCC(c3[nH]nc(-c4ccc(Cl)cc4)c3-c3ccncn3)CC2)cc1 [Example 19, 4-{3-(4-chlorophenyl)-5-[1-(4-fluorobenzyl)piperidin-4-yl]-1H-pyrazol-4-yl}pyrimidine]",0.102 µM
12,"O=C(COP(=O)(O)O)N1CCC(c2[nH]nc(-c3ccc(Cl)cc3)c2-c2ccncn2)CC1 [Example 22, 2-{4-[3-(4-chlorophenyl)-4-pyrimidin-4-yl-1H-pyrazol-5-yl]piperidin-1-yl}-2-oxoethyl Dihydrogen Phosphate]",0.00607 µM
13,"CN(C)CC(=O)OCC(=O)N1CCC(c2[nH]nc(-c3ccc(Cl)cc3)c2-c2ccncn2)CC1 [Example 25, 2-{4-[3-(4-chlorophenyl)-4-pyrimidin-4-yl-1H-pyrazol-5-yl]piperidin-1-yl}-2-oxoethyl N,N-dimethylglycinate Hydrochloride]",0.0118 µM
14,"Fc1cc(Cl)ccc1-c1n[nH]c(C2CCNCC2)c1-c1ccncn1 [Example 26, 4-[3-(4-chloro-2-fluorophenyl)-5-piperidin-4-yl-1H-pyrazol-4-yl]pyrimidine]",0.0641 µM
15,"O=C(CO)N1CCC(c2[nH]nc(-c3ccc(Cl)cc3F)c2-c2ccncn2)CC1 [Example 27, 2-{4-[3-(4-chloro-2-fluorophenyl)-4-pyrimidin-4-yl-1H-pyrazol-5-yl]piperidin-1-yl}-2-oxoethanol]",0.209 µM

# Same assay, conditions: Table 2; additional pyrazole compounds, Examples 56-169; read-out: p38α Kinase Inhibition (IC50 in μM)
row,Compound,IC50
1,CC(C)C(N)C(=O)OCC(=O)N1CCC(c2[nH]nc(-c3ccc(Cl)cc3)c2-c2ccncn2)CC1 (stereo not shown) [Example 56],0.0402 µM
2,CC(C)C(N)C(=O)OCC(=O)N1CCC(c2[nH]nc(-c3ccc(Cl)cc3)c2-c2ccncn2)CC1 (stereo not shown) [Example 57],0.0285 µM
3,CCN1CCN([C@H]2CC[C@H](c3[nH]nc(-c4ccc(Cl)cc4)c3-c3ccncn3)CC2)CC1 [Example 58],0.0649 µM
4,O=C(CO)N1CCC(c2[nH]nc(-c3ccc(Cl)cc3)c2-c2ccnc(O)n2)CC1 [Example 59],15.8 µM
